Experiments:
Format in all cases: cell-based, human
PC-3 cells = assay: Anti-proliferative toxicity against prostate cancer cell line PC-3 (CCK8); details: Homo sapiens, 72 h, 3 days
Description: (§1) Example 82: Detection of Anti-Proliferative Toxicity Against Prostate Cancer Cell Lines Vcap, 22Rv1, and PC-3
PC-3 cells (purchased from the Cell Bank of the Chinese Academy of Sciences, Cat. No. SCSP-532) were subcultured in a culture medium (F12K medium+1% penicillin-streptomycin dual-antibiotic solution+10% fetal bovine serum) in an incubator at 5% carbon dioxide and 37° C.
PC-3 cells were seeded at 4000 cells/well (90 μL) on a 96-well plate and cultured for 24 h.
(§2) 10 mM compound stock solutions were prepared in DMSO.
(§3) For 22Rv1 cells and PC-3 cells, the compound stock solution was diluted with DMSO to give DMSO solutions 11-19 at concentrations of 0 μM, 500 μM, 100 μM, 20 μM, 4 μM, 0.8 μM, 0.16 μM, 0.032 μM, 0.0064 μM.
For PC-3 cells, 2 μL of each of the above solutions 11-19 was added to 98 μL of PC-3 medium to give mixed solutions 39-47 of the compound and the medium.
(§4) For 22Rv1 and PC-3 cells, 10 μL of each of the above solutions 30-38 or 39-47 was added to the above cell seed solution to give a total volume of 100 μL (90 μL+10 μL), where the concentrations of the compound in wells were 0 μM, 1.0 μM, 0.2 μM, 0.04 μM, 0.008 μM, 0.0016 μM, 0.00032 μM, 0.00006 μM, and 0.00001 μM. All concentrations were in triplicate.
(§5) After the above-treated cells were cultured for 3 days, 10 μL of the CCK8 solution (DOJINDO, Cat. No. PF725) was added to each well. The plate was incubated in an incubator at 37° C. for 1-4 h and then detected on a microplate reader for the reading at 450 nm.

22Rv1 cells = assay: Anti-proliferative toxicity against prostate cancer cell line 22Rv1 (CCK8); details: Homo sapiens, 72 h, 3 days, CCK8
Description: as §1
(§6) Vcap cells (purchased from the Cell Bank of the Chinese Academy of Sciences, Cat. No. SCSP-5034) were subcultured in a culture medium (DMEM medium+1% penicillin-streptomycin dual-antibiotic solution+10% fetal bovine serum) in an incubator at 5% carbon dioxide and 37° C. 22Rv1 cells (purchased from the Cell Bank of the Chinese Academy of Sciences, Cat. No. TCHu100) were subcultured in a culture medium (RPMI-1640 medium+1% penicillin-streptomycin dual-antibiotic solution+10% fetal bovine serum) in an incubator at 5% carbon dioxide and 37° C.
22Rv1 cells were seeded at 5000 cells/well (90 μL) on a 96-well plate and cultured for 48 h.
as §2, §3
For 22Rv1 cells, 2 μL of each of the above solutions 11-19 was added to 98 μL of 22Rv1 medium to give mixed solutions 30-38 of the compound and the medium.
as §4, §5

VCaP cells = assay: Anti-proliferative toxicity against prostate cancer cell line Vcap (CCK8); details: Homo sapiens, 72 h, 3 days, CCK8
Description: as §1, §6
VCap cells were seeded at 20000 cells/well (90 μL) on a 96-well plate and cultured for 72 h. The original medium was removed, and a new medium of 90 μL was added.
as §2
For VCap cells, the compound stock solution was diluted with DMSO to give DMSO solutions 1-10 at concentrations of 0 μM, 80 μM, 16 μM, 3.2 μM, 1.5 μM, 0.5 μM, 0.15 μM, 0.05 μM, 0.025 μM, and 0.0005 μM.
For Vcap cells, 2 μL of each of the above solutions 1-10 was added to 98 μL of Vcap medium to give mixed solutions 20-29 of the compound and the medium.
For Vcap cells, 10 μL of each of the above solutions 20-29 was added to the above cell seed solution to give a total volume of 100 μL (90 μL+10 μL), where the concentrations of the compound in wells were 0 μM, 0.16 μM, 0.032 μM, 0.006 μM, 0.003 μM, 0.001 μM, 0.0003 μM, 0.0001 μM, 0.00005 μM, and 0.00001 μM. All concentrations were in triplicate.
as §5

Row | SMILES | IC50 (PC-3 cells) [nM] | IC50 (22Rv1 cells) [nM] | IC50 (VCaP cells) [nM]
1 | C[C@]12C=CC(=O)N[C@@H]1CC[C@@H]1[C@@H]2CC[C@]2(C)[C@@H](C(=O)NCCNc3cccc4c3C(=O)N(C3CCC(=O)NC3=O)C4=O)CC[C@@H]12 (stereo partly drawn) [C1, N-(2-((4-(2-(3-(2,6-dioxopiperidine))-isoindole-1,3-dione))amino)ethyl)-3-oxo-4-aza-5α-androst-1-ene-17β-carboxamide] | > 1000 | > 1000 | > 1000
2 | C[C@]12C=CC(=O)N[C@@H]1CC[C@@H]1[C@@H]2CC[C@]2(C)[C@@H](C(=O)NCCNc3ccc4c(c3)C(=O)N(C3CCC(=O)NC3=O)C4=O)CC[C@@H]12 (stereo partly drawn) [C2, N-(2-((5-(2-(3-(2,6-dioxopiperidine))-isoindole-1,3-dione))amino)ethyl)-3-oxo-4-aza-5α-androst-1-ene-17β-carboxamide] | > 1000 | > 1000 | > 1000
3 | C[C@]12C=CC(=O)N[C@@H]1CC[C@@H]1[C@@H]2CC[C@]2(C)[C@@H](C(=O)NCCCNc3cccc4c3C(=O)N(C3CCC(=O)NC3=O)C4=O)CC[C@@H]12 (stereo partly drawn) [C3, N-(3-((4-(2-(3-(2,6-dioxopiperidine))-isoindole-1,3-dione))amino)propyl)-3-oxo-4-aza-5α-androst-1-ene-17β-carboxamide] | > 1000 | > 1000 | > 1000
4 | C[C@]12C=CC(=O)N[C@@H]1CC[C@@H]1[C@@H]2CC[C@]2(C)[C@@H](C(=O)NCCCNc3ccc4c(c3)C(=O)N(C3CCC(=O)NC3=O)C4=O)CC[C@@H]12 (stereo partly drawn) [C4, N-(3-((5-(2-(3-(2,6-dioxopiperidine))-isoindole-1,3-dione))amino)propyl)-3-oxo-4-aza-5α-androst-1-ene-17β-carboxamide] | > 1000 | > 1000 | > 1000
5 | C[C@]12C=CC(=O)N[C@@H]1CC[C@@H]1[C@@H]2CC[C@]2(C)[C@@H](C(=O)NCCCCNc3cccc4c3C(=O)N(C3CCC(=O)NC3=O)C4=O)CC[C@@H]12 (stereo partly drawn) [C5, N-(4-((4-(2-(3-(2,6-dioxopiperidine))-isoindole-1,3-dione))amino)butyl)-3-oxo-4-aza-5α-androst-1-ene-17β-carboxamide] | > 1000 | > 1000 | > 1000
6 | C[C@]12C=CC(=O)N[C@@H]1CC[C@@H]1[C@@H]2CC[C@]2(C)[C@@H](C(=O)NCCCCNc3ccc4c(c3)C(=O)N(C3CCC(=O)NC3=O)C4=O)CC[C@@H]12 (stereo partly drawn) [C6, N-(4-((5-(2-(3-(2,6-dioxopiperidine))-isoindole-1,3-dione))amino)butyl)-3-oxo-4-aza-5α-androst-1-ene-17β-carboxamide] | > 1000 | > 1000 | > 1000
7 | C[C@]12C=CC(=O)N[C@@H]1CC[C@@H]1[C@@H]2CC[C@]2(C)[C@@H](C(=O)NCCCCCNc3cccc4c3C(=O)N(C3CCC(=O)NC3=O)C4=O)CC[C@@H]12 (stereo partly drawn) [C7, N-(5-((4-(2-(3-(2,6-dioxopiperidine))-isoindole-1,3-dione))amino)pentyl)-3-oxo-4-aza-5α-androst-1-ene-17β-carboxamide] | > 1000 | > 1000 | > 1000
8 | C[C@]12C=CC(=O)N[C@@H]1CC[C@@H]1[C@@H]2CC[C@]2(C)[C@@H](C(=O)NCCCCCNc3ccc4c(c3)C(=O)N(C3CCC(=O)NC3=O)C4=O)CC[C@@H]12 (stereo partly drawn) [C8, N-(5-((5-(2-(3-(2,6-dioxopiperidine))-isoindole-1,3-dione))amino)pentyl)-3-oxo-4-aza-5α-androst-1-ene-17β-carboxamide] | > 1000 | > 1000 | > 1000
9 | C[C@]12C=CC(=O)N[C@@H]1CC[C@@H]1[C@@H]2CC[C@]2(C)[C@@H](C(=O)NCCCCCCNc3cccc4c3C(=O)N(C3CCC(=O)NC3=O)C4=O)CC[C@@H]12 (stereo partly drawn) [C9, N-(6-((4-(2-(3-(2,6-dioxopiperidine))-isoindole-1,3-dione))amino)hexyl)-3-oxo-4-aza-5α-androst-1-ene-17β-carboxamide] | > 1000 | > 1000 | > 1000
10 | C[C@]12C=CC(=O)N[C@@H]1CC[C@@H]1[C@@H]2CC[C@]2(C)[C@@H](C(=O)NCCCCCCNc3ccc4c(c3)C(=O)N(C3CCC(=O)NC3=O)C4=O)CC[C@@H]12 (stereo partly drawn) [C10, N-(6-((5-(2-(3-(2,6-dioxopiperidine))-isoindole-1,3-dione))amino)hexyl)-3-oxo-4-aza-5α-androst-1-ene-17β-carboxamide] | > 1000 | > 1000 | > 1000
11 | C[C@]12C=CC(=O)N[C@@H]1CC[C@@H]1[C@@H]2CC[C@]2(C)[C@@H](C(=O)NCCCCCCCNc3cccc4c3C(=O)N(C3CCC(=O)NC3=O)C4=O)CC[C@@H]12 (stereo partly drawn) [C11, N-(7-((4-(2-(3-(2,6-dioxopiperidine))-isoindole-1,3-dione))amino)heptyl)-3-oxo-4-aza-5α-androst-1-ene-17β-carboxamide] | > 1000 | > 1000 | > 1000
12 | C[C@]12C=CC(=O)N[C@@H]1CC[C@@H]1[C@@H]2CC[C@]2(C)[C@@H](C(=O)NCCCCCCCNc3ccc4c(c3)C(=O)N(C3CCC(=O)NC3=O)C4=O)CC[C@@H]12 (stereo partly drawn) [C12, N-(7-((5-(2-(3-(2,6-dioxopiperidine))-isoindole-1,3-dione))amino)heptyl)-3-oxo-4-aza-5α-androst-1-ene-17β-carboxamide] | > 1000 | > 1000 | > 1000
13 | C[C@]12C=CC(=O)N[C@@H]1CC[C@@H]1[C@@H]2CC[C@]2(C)[C@@H](C(=O)N3CCC(CN4CCN(c5cccc6c5C(=O)N(C5CCC(=O)NC5=O)C6=O)CC4)CC3)CC[C@@H]12 (stereo partly drawn) [C13, 1-(4-(2-(3-(2,6-dioxopiperidine))-isoindole-1,3-dione))-4-(4-(1-(3-oxo-4-aza-5α-androst-1-ene-17β-formyl)piperidine)methyl)-piperazine] | > 1000 | > 1000 | > 1000
14 | C[C@]12C=CC(=O)N[C@@H]1CC[C@@H]1[C@@H]2CC[C@]2(C)[C@@H](C(=O)N3CCC(CN4CCN(c5ccc6c(c5)C(=O)N(C5CCC(=O)NC5=O)C6=O)CC4)CC3)CC[C@@H]12 (stereo partly drawn) [C14, 1-(5-(2-(3-(2,6-dioxopiperidine))-isoindole-1,3-dione))-4-(4-(1-(3-oxo-4-aza-5α-androst-1-ene-17β-formyl)piperidine)methyl)-piperazine] | > 1000 | > 1000 | > 1000
15 | C[C@]12C=CC(=O)N[C@@H]1CC[C@@H]1[C@@H]2CC[C@]2(C)[C@@H](C(=O)Nc3ccc(OCCNc4cccc5c4C(=O)N(C4CCC(=O)NC4=O)C5=O)cc3)CC[C@@H]12 (stereo partly drawn) [C15, N-(4-((2-((4-(2-(3-(2,6-dioxopiperidine))-isoindole-1,3-dione))amino)ethyl)oxy)phenyl)-3-oxo-4-aza-5α-androst-1-ene-17β-carboxamide] | > 1000 | > 1000 | 10 to 1000
16 | C[C@]12C=CC(=O)N[C@@H]1CC[C@@H]1[C@@H]2CC[C@]2(C)[C@@H](C(=O)Nc3ccc(OCCNc4ccc5c(c4)C(=O)N(C4CCC(=O)NC4=O)C5=O)cc3)CC[C@@H]12 (stereo partly drawn) [C16, N-(4-((2-((5-(2-(3-(2,6-dioxopiperidine))-isoindole-1,3-dione))amino)ethyl)oxy)phenyl)-3-oxo-4-aza-5α-androst-1-ene-17β-carboxamide] | > 1000 | > 1000 | > 1000

Reference: patent US20250213701A1, “MEDICAMENT FOR TREATING HUMAN TUMOR BASED ON ERF3A-TARGETING PROTEOLYSIS MECHANISM” (SUZHOU DEGEN BIO-MEDICAL CO., LTD., priority 2022, published 2025)
